Test results from patent US9937165B2, “Pharmacological chaperones for treating obesity” (Amicus Therapeutics, Inc., priority 2005, dated 2018).
Where “and” joins values, the source holds several entries; their conditions need not be identical. Equal values may be shown once. Each block holds one compound with its values, some of them ahead of it. Square brackets hold non-standard residues; d marks the D form. d2Nal = N[C@H](Cc1ccc2ccccc2c1)C(=O)O; Nle = CCCC[C@H](N)C(=O)O

Tests used:
[1] = molecular target: T1, α-Galactosidase A (α-Gal A) (Homo sapiens, UniProt P06280); set-up: host or cells: normal lymphoblasts (endogenous enzyme); settings: normal lymphoblasts cultured in vitro with DGJ; cited from earlier work
T1 sequence (P06280 32-429): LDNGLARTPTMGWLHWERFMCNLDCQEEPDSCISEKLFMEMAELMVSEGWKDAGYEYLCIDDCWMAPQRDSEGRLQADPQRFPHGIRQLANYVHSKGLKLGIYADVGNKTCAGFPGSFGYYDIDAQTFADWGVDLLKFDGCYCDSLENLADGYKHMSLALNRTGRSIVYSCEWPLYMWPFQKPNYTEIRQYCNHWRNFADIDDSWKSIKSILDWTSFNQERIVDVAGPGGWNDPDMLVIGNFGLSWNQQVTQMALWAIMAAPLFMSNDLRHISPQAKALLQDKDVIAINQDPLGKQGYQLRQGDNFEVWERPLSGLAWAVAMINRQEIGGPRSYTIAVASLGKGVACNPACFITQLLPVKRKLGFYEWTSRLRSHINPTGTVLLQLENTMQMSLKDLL

[2] = Phase I study of DGJ, pharmacokinetics in plasma and urine; format: in vivo, human
Experimental: (§1) Subjects were housed in the treatment facility from 14 hours prior to dosing until 24 hours after dosing. Meals were controlled by schedule and subjects remained abulatory for 4 hours post drug administration.
Blood samples (10 mL each) were collected in blood collection tubes containing EDTA before dosing and at the following times thereafter: 0.25, 0.5, 0.75, 1, 1.5, 2, 3, 4, 5, 6, 7, 8, 9, 10, 11 and 12 hours. Blood samples were cooled in an ice bath and centrifuged under refrigeration as soon as possible. Plasma samples were divided into two aliquots and stored at […]. pending assay. At the end of the study, all samples were transferred to MDS Pharma Services Analytical Laboratories (Lincoln) for analysis.
Pharmacokinetic parameters were summarised by treatment group using descriptive statistics (arithmetic means, standard deviations, coefficients of variation, sample size, minimum, maximum and median).

[3] = Phase I study of DGJ, safety and tolerability; format: in vivo, human
Experimental: as §1
Safety was determined by evaluating vital signs, laboratory parameters (serum chemistry, hematology, and urinalysis), ECGs, physical examination and by recording adverse events during the Treatment Period.
Safety data including laboratory evaluations, physical exams, adverse events, ECG monitoring and vital signs assessments were summarized by treatment group and point of time of collection. Descriptive statistics (arithmetic mean, standard deviation, median, minimum and maximum) were calculated for quantitative safety data as well as for the difference to baseline. Frequency counts were compiled for classification of qualitative safety data.
Adverse events were coded using the MedDRA version 7.0 dictionary and summarized by treatment for the number of subjects reporting the adverse event and the number of adverse events reported. A by-subject adverse event data listing including verbatim term, coded term, treatment group, severity, and relationship to treatment was provided. Concomitant medications and medical history were listed by treatment.

[4] = molecular target: T1, α-Galactosidase A (α-Gal A); test: Phase I study of DGJ, WBC α-Gal A enzymatic activity; format: in vivo; set-up: α-Gal A activity was calculated in white blood cells (WBC) before dosing began; endogenous in cells
Experimental: as §1
Blood samples (10 mL each) were collected in blood collection tubes containing EDTA and WBC extracted before dosing and at the following times thereafter: 100 hours, 150 hours, and 336 hours. Samples were treated as described above, and WBC α-Gal A enzymatic activity levels were determined.

[5] = test system: WT and mutant hMC4R (S58C; N62S; R165W; R165Q; P299H) in HEK 293 cells; test: Chemical chaperone assay, MC4R cell surface expression by FACS; format: cell-based, human; settings: 1% DMSO, 12 hours
Experimental: HEK 293 cells were transiently transfected with wild-type (WT) or the following hMC4R mutants double tagged with 3HA and Venus (Enhanced Yellow Green Fluorescent Protein; EYFP): S58C; N62S; R165W; R165Q, and P299H.
WT and transiently transfected cells were incubated in the presence or absence of 1% DMSO for 12 hours prior to evaluation of MC4R cells surface expression.
FACS analysis was performed after fluorescently labeling cells with primary anti-HA.11 antibody (mouse; 1:1000 dilution) and the secondary antibody coupled to Alexa 647 (goat anti-mouse; 1:1000 dilution) dilution. Live cells (propidium iodide negative) were sorted into the following two relevant populations: • P4: Total YFP positive cells (representative of total MC4R expression) • P5: Percent of cells positive for both YFP and Alexa 647 (Alexa and YFP positive cells)/(YFP positive cells+Alexa and YFP positive cells) (representative of cell surface expression)

[6] = molecular target: MC4R as compared to the MC3R (Homo sapiens, UniProt P32245); settings: cited from earlier work
[7] = molecular target: MC4R as compared to the MC5R (Homo sapiens, UniProt P32245); settings: cited from earlier work
MC4R = MC4R (Homo sapiens, UniProt P32245); settings: MC4R antagonist; cited from earlier work
MC4R over MC3R = MC4R over MC3R (Homo sapiens, UniProt P32245); settings: cited from earlier work
Sequence of MC4R over MC3R (P32245 whole entry): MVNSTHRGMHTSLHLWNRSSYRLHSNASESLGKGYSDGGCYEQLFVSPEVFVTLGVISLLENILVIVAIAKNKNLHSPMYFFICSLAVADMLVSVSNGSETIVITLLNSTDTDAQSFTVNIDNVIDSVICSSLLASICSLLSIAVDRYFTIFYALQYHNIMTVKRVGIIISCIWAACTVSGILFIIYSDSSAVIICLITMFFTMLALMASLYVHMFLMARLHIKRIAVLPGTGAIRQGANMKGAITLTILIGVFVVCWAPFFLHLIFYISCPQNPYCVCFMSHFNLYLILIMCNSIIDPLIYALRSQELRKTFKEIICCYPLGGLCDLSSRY

Sequence of MC4R as compared to the MC3R (P32245 whole entry): as above
Sequence of MC4R (P32245 whole entry): as above
Sequence of MC4R as compared to the MC5R (P32245 whole entry): as above

tmax ([2]; 50 mg b.i.d. oral, Day 1): 2.9 ± 0.4 h
t½ ([2]; 50 mg b.i.d. oral, Day 1): 2.5 h
12 h cumulative renal excretion ([2]; 50 mg b.i.d. oral, Day 1, 12-hour post dose period): 16% and 16 ± 6%
Cmax ([2]; 50 mg b.i.d. oral, Day 1, plasma): 2.3 ± 0.3 µM
Cmin ([2]; 50 mg b.i.d. oral, Day 7): 0.4 ± 0.03 µM
tmax ([2]; 50 mg b.i.d. oral, Day 7): 2.5 ± 0.4 h
12 h cumulative renal excretion ([2]; 50 mg b.i.d. oral, Day 7, 12-hour post dose period): 48% and 48 ± 7%
Cmax ([2]; 50 mg b.i.d. oral, Day 7, plasma): 39 ± 0.5 µM
tmax ([2]; 150 mg b.i.d. oral, Day 1): 3.1 ± 0.4 h
t½ ([2]; 150 mg b.i.d. oral, Day 1): 2.4 h
12 h cumulative renal excretion ([2]; 150 mg b.i.d. oral, Day 1, 12-hour post dose period): 42% and 42 ± 7%
Cmax ([2]; 150 mg b.i.d. oral, Day 1, plasma): 11.3 ± 1.5 µM
Cmin ([2]; 150 mg b.i.d. oral, Day 7): 1.2 ± 0.1 µM
tmax ([2]; 150 mg b.i.d. oral, Day 7): 2.9 ± 0.4 h
12 h cumulative renal excretion ([2]; 150 mg b.i.d. oral, Day 7, 12-hour post dose period): 60% and 60 ± 5%
Cmax ([2]; 150 mg b.i.d. oral, Day 7, plasma): 10.8 ± 1.4 µM
time of peak concentrations, on average ([2]; all dose levels): approximately 3 hours
dose dependence of Cmax ([2]; doses increased from 50 mg to 150 mg): increased in a dose-proportional manner
inhibition of WBC α-Gal A enzymatic activity ([4]; 50 mg b.i.d. or 150 mg b.i.d.): did not inhibit
WBC α-Gal A enzymatic activity, % pre-dose levels ([4]; 50 mg b.i.d., 150 hours): 130%
WBC α-Gal A enzymatic activity, % pre-dose levels ([4]; 50 mg b.i.d., 336 hours): 145%
WBC α-Gal A enzymatic activity, % pre-dose levels ([4]; 150 mg b.i.d., 100 hours): 150%
WBC α-Gal A enzymatic activity, % pre-dose levels ([4]; 150 mg b.i.d., 150 hours): 185%
WBC α-Gal A enzymatic activity, % pre-dose levels ([4]; 150 mg b.i.d., 336 hours): 185%
Compound: OC[C@H]1NC[C@H](O)[C@@H](O)[C@H]1O [DGJ, 1-deoxygalactonojirimycin]
increase of α-Gal A activity [1]: 30%
safety and tolerability ([3]; 50 mg b.i.d. and 150 mg b.i.d., healthy male subjects): safe and well tolerated
adverse events (AEs) ([3]; 50 mg b.i.d. or 150 mg b.i.d., healthy male subjects): no subject presented with AEs
vital sign, ECG, or physical examination parameter ([3]; throughout the study): No clinically relevant abnormality

Compound: C[S+](C)[O-] [DMSO]
enhancement of MC4R cell surface expression [5]: No significant enhancement

Compound: Ac-Nle-Gly-Lys-D-Nal(2)-Arg-Trp-Gly-NH(2) (Ac-[Nle]GK[d2Nal]RWG-NH2; SMILES CCCC[C@H](NC(C)=O)C(=O)NCC(=O)N[C@@H](CCCCN)C(=O)N[C@H](Cc1ccc2ccccc2c1)C(=O)N[C@@H](CCCNC(=N)N)C(=O)N[C@@H](Cc1c[nH]c2ccccc12)C(=O)NCC(N)=O)
selectivity for the MC4R as compared to the MC3R [6]: 34 fold
selectivity for the MC4R as compared to the MC5R [7]: 109 fold

Compound: Ac-Nle-Gly-Lys-D-Phe-Arg-Trp-Gly-NH(2) (Ac-[Nle]GK[dF]RWG-NH2; SMILES CCCC[C@H](NC(C)=O)C(=O)NCC(=O)N[C@@H](CCCCN)C(=O)N[C@H](Cc1ccccc1)C(=O)N[C@@H](CCCNC(=N)N)C(=O)N[C@@H](Cc1c[nH]c2ccccc12)C(=O)NCC(N)=O)
selectivity for the MC4R as compared to the MC3R [6]: 90 fold
selectivity for the MC4R as compared to the MC5R [7]: 110 fold

Compound: Ac-Nle-c[Asp-Che-DNal(2′)-Arg-Trp-Lys-NH(2) [SHU9119 analogue, cyclic MC4R antagonist of Grieco et al., J Med Chem 2002]
IC50 (MC4R): 0.48 nM
selectivity over MC3R (MC4R over MC3R): 100 fold

Compound: Ac-Nle-c[Asp-Cpe-DNal(2′)-Arg-Trp-Lys-NH(2) [SHU9119 analogue, cyclic MC4R antagonist of Grieco et al., J Med Chem 2002]
IC50 (MC4R): 0.51 nM
selectivity over MC3R (MC4R over MC3R): 200 fold
